Literature values as cited in patent publication US8247562B2, “Benzamide derivatives useful as histone deacetylase inhibitors” (Astrazeneca AB, priority 2002, dated 2012).

Key:
rat fibroblasts = details: Yoshida et al, Exper. Cell Res., 177, 122-131 (1988)
tumours in mice = details: Finnin et al., Nature, 401, 188-193 (1999)

SMILES: CC(/C=C/C(=O)NO)=C\[C@@H](C)C(=O)c1ccc(N(C)C)cc1 [Trichostatin A]
- cell cycle arrest (rat fibroblasts): arrest of rat fibroblasts at the G1 and G2 phases of the cell cycle
- formation of tumours (tumours in mice): prevent the formation of tumours in mice
